Data on eight compounds can be found in article PMC10674299, “Discovery of Guanfacine as a Novel TAAR1 Agonist: A Combination Strategy through Molecular Modeling Studies and Biological Assays” (Pharmaceuticals, 2023).

One may read the pKi as the Ki on a negative log10 scale, so that one unit is a factor of ten. One may read the pEC50 as the negative decadic logarithm of the EC50, by convention in mol/L. As usually defined, the Emax is the greatest response seen or fitted, relative to the assay's reference.

The target of data set [1] is α2-ADR. Set-up: method as in PMID 22795332. The settings on record: cited from earlier work.
Data set [2] concerns α2-ADR. The settings on record: cited from earlier work.
The target in data set [3] is T1, hTAAR1 (Homo sapiens, UniProt Q96RJ0).
T1 construct: Plasmid containing the cDNA for hTAAR1 was a generous gift from Hoffman-La Roche; expressed in transfected cells; host or cells: HEK293T (ATCC CRL-11268), transient transfection with Lipofectamine 2000
T1 sequence (Q96RJ0 1-339): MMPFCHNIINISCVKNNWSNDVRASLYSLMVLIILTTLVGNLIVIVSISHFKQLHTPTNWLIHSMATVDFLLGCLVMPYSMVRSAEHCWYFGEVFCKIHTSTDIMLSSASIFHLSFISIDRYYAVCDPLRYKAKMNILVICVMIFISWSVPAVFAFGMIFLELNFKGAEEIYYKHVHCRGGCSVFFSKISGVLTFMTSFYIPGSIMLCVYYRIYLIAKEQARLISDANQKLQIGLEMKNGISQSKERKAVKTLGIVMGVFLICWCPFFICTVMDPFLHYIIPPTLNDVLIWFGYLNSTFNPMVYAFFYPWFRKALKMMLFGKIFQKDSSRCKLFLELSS
The settings on record: S18616; cited from earlier work.

Data set [4] deals with T1, hTAAR1. Kind of data set: BRET-based cAMP assay in HEK293 cells transfected with hTAAR1 and cAMP biosensor. Type of data set: cell-based. The settings on record: for pEC50: HEK293, dose-response 1 nM to 10 μM, IBMX 200 µM. As for the experimental part:
hTAAR1 is coupled to stimulatory G proteins and thus its activation induces an increase in the cAMP production. We measured the potential activity of guanfacine and guanabenz by using a BRET-based assay in which HEK293 cells were transfected with hTAAR1, or the empty vector as control, and the cAMP BRET biosensor. […] A dose-response experiment was performed using concentrations ranging from 1 nM to 10 μM to calculate the corresponding EC50 and the Emax values.
Human embryonic kidney 293 cells (HEK293T; ATCC CRL-11268) were maintained in Dulbecco’s Modified Eagle’s medium (DMEM; Gibco-Thermo Fisher Scientific, New York, NY, USA) supplemented with 10% (v/v) of FBS, 2 mM l-glutamine, and 0.05 mg/mL of gentamicin (both from Gibco) at 37 °C in a humidified atmosphere at 95% air and 5% CO2. Transient transfections were performed 24 h after cell seeding using the Lipofectamine reagent 2000 protocol (Invitrogen-Thermo Fisher Scientific, Carlsbad, USA). Then, 5 µg of hTAAR1 and 4 µg of cAMP biosensor protein (EPAC) encoding plasmids (the latter based on pcDNA3 core vector [59]) for each milliliter of transfection mix were used. For the BRET experiments, the cells were plated 6 h after transfection in poly-D-lysine coated 96-well white opaque microplates (Corning, New York, NY, USA) at a density of 7 × 10^4 cells per well in phenol red free Minimum Essential Medium (MEM; Gibco-Thermo Fisher Scientific, New York, NY, USA) containing 2% of FBS, 10 mM HEPES buffering agent, and 2 mM L-glutamine (all from Gibco-Thermo Fisher Scientific, New York, NY, USA). The cells were then cultured for an additional 24 h.
The BRET experiment was conducted as already described. Briefly, for time course experiments, the plate was read immediately after the addition of the agonist and for approximately 20 min. All the experiments were conducted in the presence of the phosphodiesterase inhibitor 3-isobutyl-1-methylxanthine (IBMX; Sigma-Aldrich, St. Louis, MO, USA) at the final concentration of 200 µM. Readings were collected using a Tecan Infinite instrument that allows the sequential integration of the signals detected in the 465 to 505 nm and 515 to 555 nm windows using filters with the appropriate band pass and by using iControl software. The acceptor/donor ratio was then calculated.
All the compounds were dissolved in dimethyl sulfoxide (DMSO; Sigma-Aldrich, St. Louis, MO, USA) and tested at the final concentration of 10 μM. Beta-phenylethylamine (Sigma-Aldrich, St. Louis, MO, USA) at the final concentration of 10 µM was applied as a positive control. To confirm specificity of positive responses, parallel screening on cells not transfected with the TAAR1-encoding vector was carried out. For compounds considered active, separate dose-response experiments were performed in order to calculate the EC50 values. Curves were fitted using a non-linear regression and one site specific binding with GraphPad Prism 6 (GraphPad Software). Data are representative of 4–5 independent experiments and are expressed as means, SD < 10%.
(In BRET a luciferase serves as donor, and the signal depends on an acceptor being close.)

In data set [5] the test system is mTAAR1. Set-up: method as in doi:10.1039/C5MD00400D. Particulars: BRET cAMP reporter; cited from earlier work.
The target in another data set is chimeric receptor cTAAR1. Set-up: method as in PMID 19725810. The settings on record: cited from earlier work.
Data set [6] relates to mTAAR1. Details: method as in PMID 19725810. The settings on record: cited from earlier work.
Details of data set [7]: method as in PMID 12351753. Particulars: animal studies, cited from earlier work.
A further data set deals with DAT-KO rats. Description: Locomotor activity of DAT-KO rats (Actometer). Type of data set: in vivo, rat. The settings on record: 0.1 and 0.3 mg/kg i/p, 60 min, vs vehicle p < 0.001 and p = 0.02 (Bonferroni). As for the experimental part:
To evaluate the in vivo pharmacological effect of guanfacine, we used a rodent model of hyperdopaminergia, the dopamine transporter knockout (DAT-KO) rats, that also mimics some phenotypic aspect of ADHD and has certain predictive validity for the search of novel pharmacological agents to control hyperactivity and cognitive processes in patients with this disease. […] Thus, the effect of guanfacine on hyperactivity of DAT-KO rats was evaluated.
Results are presented on Figure 15. […] We used the mixed ANOVA (the within-subject factors ‘5-min bin’ (1–12) and ‘dose’ (0.0; 0.1; 0.3 mg/kg), the between-subject factor ‘mutation’ (‘WT’; ‘KO’); the random factor ‘rat #’) on rank-transformed data to analyze results. […] Locomotor activity of the rats decreased from the 1st to the 12th bin (the effect of factor ‘5-min bin’: F(11,51) = 2.51, p = 0.01). The lack of DAT was associated with an increased level of locomotor activity (the effect of factor ‘mutation’: F(1,11) = 222.94, p < 0.001). […] We used Bonferroni’s test for post hoc comparisons. […]
The study was performed in the apparatus ‘Actometer’ described in detail before. […] Following the injection, the locomotor activity of the animals was recorded for an additional 60 min divided in 12 intervals of 5-min each. […]

pEC50, pKi: −log10 of the molar value. Like-named read-outs stand apart in the source and are kept apart here.

As for `c1ccc(CC2=NCCN2)cc1` [5a], the negative-log Ki (pKi) on α2-ADR [1] was 7.01.

As to `c1ccc(Cc2ncc[nH]2)cc1` [6a], the pKi on α2-ADR [1] was 5.73.

In the case of `NC1=NC2(CCc3cccc(Cl)c3C2)CO1` (stereo not drawn) [S18616], the negative logarithm of the EC50 (pEC50) is 9.15 in the data set on α2-ADR [2] (S18616) and 7.82 on hTAAR1 [3].

Take `CC(C)N(Cc1c[nH]cn1)c1ccc(Cl)cc1` [compound 24]: on α2-ADR [1], the negative logarithm of the Ki (pKi) was 6.08.

Take `CCN(Cc1ncc[nH]1)c1ccccc1` [compound 51]: at α2-ADR [1], the pKi was 6.30 to 6.60.

For `N=C(N)N/N=C/c1c(Cl)cccc1Cl` [guanabenz], the maximal response (Emax) on hTAAR1 [4] (HEK293, read-out: hTAAR1 Emax) was more than 85%. Besides, the “type of agonism at hTAAR1” value on hTAAR1 [4] (cAMP BRET, HEK293) is recorded as “full agonists”. In addition, the negative logarithm of the EC50 (pEC50) at hTAAR1 [4] (cAMP BRET) was 8.00; with α2-ADR [2] (guanabenz) it was approximately 7.79; in the data set with mTAAR1 [5], 7.05; at chimeric receptor cTAAR1 (chimeric human/mouse receptor), 7.60; with mTAAR1 [6], 8.15. The “type of agonism at mTAAR1” value is “full agonist” in the data set with mTAAR1 [5] and “partial agonist” in the data set with mTAAR1 [6]. Besides, in the data set on chimeric receptor cTAAR1, the “type of agonism at cTAAR1” value is reported as “partial agonist”.

For the compound `N=C(N)NC(=O)Cc1c(Cl)cccc1Cl` [guanfacine], at hTAAR1 [4] (cAMP BRET, HEK293), the “type of agonism at hTAAR1” value is “full agonists”. Besides, the pEC50 is 7.70 on hTAAR1 [4] (cAMP BRET) and approximately 7.60 in the data set with α2-ADR [2] (guanfacine). Besides, the maximum response (Emax) on hTAAR1 [4] (cAMP BRET, HEK293, read-out: hTAAR1 Emax) is more than 85%. Further, in data set [7] (higher doses (10 mg/Kg)), the adverse effects entry is reported as “provoked more relevant adverse effects”. Also, the “effect on working memory” value in [7] (low doses (0.5–1 mg/Kg)) is “improved working memory without reducing blood pressure or causing significant sedation”. The “effect on locomotor activity” value in the data set on DAT-KO rats is given as “decreased locomotor activity”.

At hTAAR1 [4] (cAMP BRET), `NCCc1ccccc1` [β-PEA, β-phenylethylamine] gave a pEC50 of 6.69.
